Assays:
AZD4320 = compound: CN(CC[C@H](CSC1=CC=CC=C1)NC2=C(C=C(C=C2)S(=O)(=O)NC(=O)C3=CC=C(C=C3)N4CCC(CC4)[C@H](C5=CC=CC=C5C6=CC=C(C=C6)Cl)O)S(=O)(=O)C(F)(F)F)CCO [AZD4320]; details: max 1 µM
Summary of the method: (§1)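 Cancer cell lines were plated in 1536-well plates in 7.5 μl of DMEM/F12 or RPMI with 10% FBS and kept 24 hours at 37°C and 5% CO2 before 72 hours of dosing, with final DMSO typically 0.2%. CellTiter-Glo 2.0 luminescence measured viability, scaled between blank-well and DMSO-well means. Dose responses were fitted to a two-parameter logistic curve with a non-linear mixed effects model. This fit gives the single-agent IC50.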

Doxorubicin = compound: COc1cccc2c1C(=O)c1c(O)c3c(c(O)c1C2=O)C[C@@](O)(C(=O)CO)C[C@@H]3O[C@H]1C[C@H](N)[C@H](O)[C@H](C)O1 [Doxorubicin]; details: max 1 µM
Summary of the method: as §1

Gefitinib = compound: COc1cc2ncnc(Nc3ccc(F)c(Cl)c3)c2cc1OCCCN1CCOCC1 [Gefitinib]; details: max 10 µM
Summary of the method: as §1

Venetoclax = compound: CC1(C)CCC(CN2CCN(c3ccc(C(=O)NS(=O)(=O)c4ccc(NCC5CCOCC5)c([N+](=O)[O-])c4)c(Oc4cnc5[nH]ccc5c4)c3)CC2)=C(c2ccc(Cl)cc2)C1 [Venetoclax]; details: max 1 µM
Summary of the method: as §1

Dasatinib = compound: CC1=C(C(=CC=C1)Cl)NC(=O)C2=CN=C(S2)NC3=CC(=NC(=N3)C)N4CCN(CC4)CCO [Dasatinib]; details: max 2 µM
Summary of the method: as §1

Palbociclib = compound: CC(=O)c1c(C)c2cnc(Nc3ccc(N4CCNCC4)cn3)nc2n(C2CCCC2)c1=O [Palbociclib]; details: max 10 µM
Summary of the method: as §1

Olaparib = compound: O=C(c1cc(Cc2n[nH]c(=O)c3ccccc23)ccc1F)N1CCN(C(=O)C2CC2)CC1 [Olaparib]; details: max 10 µM
Summary of the method: as §1

Taselisib = compound: Cc1nc(-c2cn3c(n2)-c2ccc(-c4cnn(C(C)(C)C(N)=O)c4)cc2OCC3)n(C(C)C)n1 [Taselisib]; details: max 10 µM
Summary of the method: as §1

AZD0156 = compound: CN(C)CCCOc1ccc(-c2ccc3ncc4c(c3c2)n(C2CCOCC2)c(=O)n4C)cn1 [AZD0156]; details: max 3 µM
Summary of the method: as §1

AZD5991 = compound: Cc1c2c(nn1C)CSCc1cc(n(C)n1)CSc1cc(c3ccccc3c1)OCCCc1c(C(=O)O)n(C)c3c-2c(Cl)ccc13 [AZD5991]; details: max 1 µM
Summary of the method: as §1

Lapatinib = compound: CS(=O)(=O)CCNCc1ccc(-c2ccc3ncnc(Nc4ccc(OCc5cccc(F)c5)c(Cl)c4)c3c2)o1 [Lapatinib]; details: max 10 µM
Summary of the method: as §1

AZD6738 = compound: C[C@@H]1COCCN1C2=NC(=NC(=C2)C3(CC3)[S@](=N)(=O)C)C4=C5C=CNC5=NC=C4 [AZD6738]; details: max 10 µM
Summary of the method: as §1

AZD5153 = compound: COc1nnc2ccc(N3CCC(c4ccc(OCCN5CCN(C)C(=O)[C@H]5C)cc4)CC3)nn12 [AZD5153]; details: max 1 µM
Summary of the method: as §1

Trametinib = compound: CC(=O)Nc1cccc(-n2c(=O)n(C3CC3)c(=O)c3c(Nc4ccc(I)cc4F)n(C)c(=O)c(C)c32)c1 [Trametinib]; details: max 1 µM
Summary of the method: as §1

Crizotinib = compound: C[C@@H](Oc1cc(-c2cnn(C3CCNCC3)c2)cnc1N)c1c(Cl)ccc(F)c1Cl [Crizotinib]; details: max 10 µM
Summary of the method: as §1

Savolitinib = compound: C[C@@H](c1ccc2nccn2c1)n1nnc2ncc(-c3cnn(C)c3)nc21 [Savolitinib]; details: max 1 µM
Summary of the method: as §1

AZD7648 = compound: Cc1cc2ncnn2cc1Nc1ncc2c(n1)n(C1CCOCC1)c(=O)n2C [AZD7648]; details: max 10 µM
Summary of the method: as §1

AZD8186 = compound: C[C@@H](Nc1cc(F)cc(F)c1)c1cc(C(=O)N(C)C)cc2c(=O)cc(N3CCOCC3)oc12 [AZD8186]
Summary of the method: as §1

Prexasertib = compound: COc1cccc(OCCCN)c1-c1cc(Nc2cnc(C#N)cn2)n[nH]1 [Prexasertib]; details: max 1 µM
Summary of the method: as §1

Alisertib = compound: COc1cc(Nc2ncc3c(n2)-c2ccc(Cl)cc2C(c2c(F)cccc2OC)=NC3)ccc1C(=O)O [Alisertib]; details: max 10 µM
Summary of the method: as §1

AZD1390 = compound: CC(C)n1c(=O)n(C)c2cnc3cc(F)c(-c4ccc(OCCCN5CCCCC5)nc4)cc3c21 [AZD1390]; details: max 0.3 µM
Summary of the method: as §1

AZD1775 = compound: C=CCn1c(=O)c2cnc(Nc3ccc(N4CCN(C)CC4)cc3)nc2n1-c1cccc(C(C)(C)O)n1 [AZD1775]; details: max 3 µM
Summary of the method: as §1

SN-38 = compound: CCc1c2c(nc3ccc(O)cc13)-c1cc3c(c(=O)n1C2)COC(=O)[C@]3(O)CC [SN-38]; details: max 0.3 µM
Summary of the method: as §1

AZD2811 = compound: CCN(CCO)CCCOc1ccc2c(Nc3cc(CC(=O)Nc4cccc(F)c4)[nH]n3)ncnc2c1 [AZD2811]; details: max 1 µM
Summary of the method: as §1

Capivasertib = compound: C1CN(CCC1(C(=O)N[C@@H](CCO)C2=CC=C(C=C2)Cl)N)C3=NC=NC4=C3C=CN4 [Capivasertib]; details: max 10 µM
Summary of the method: as §1

Selumetinib = compound: Cn1cnc2c(F)c(Nc3ccc(Br)cc3Cl)c(C(=O)NOCCO)cc21 [Selumetinib]; details: max 10 µM
Summary of the method: as §1

SG3199 = compound: CC1=CN2[C@@H](C1)C=NC3=CC(=C(C=C3C2=O)OC)OCCCCCOC4=C(C=C5C(=C4)N=C[C@@H]6CC(=CN6C5=O)C)OC [SG3199]; details: max 0.001 µM
Summary of the method: as §1

AZD5363 = compound: C1CN(CCC1(C(=O)N[C@@H](CCO)C2=CC=C(C=C2)Cl)N)C3=NC=NC4=C3C=CN4 [AZD5363]; details: max 10 µM
Summary of the method: as §1

Paclitaxel = compound: CC(=O)O[C@H]1C(=O)[C@@]2(C)[C@H]([C@H](OC(=O)c3ccccc3)[C@]3(O)C[C@H](OC(=O)[C@H](O)[C@@H](NC(=O)c4ccccc4)c4ccccc4)C(C)=C1C3(C)C)[C@]1(OC(C)=O)CO[C@@H]1C[C@@H]2O [Paclitaxel]; details: max 3 µM
Summary of the method: as §1

Carboplatin = compound: C1CC(C1)(C(=O)[O-])C(=O)[O-].N.N.[Pt+2] [Carboplatin]; details: max 10 µM
Summary of the method: as §1

MK-2206 = compound: NC1(c2ccc(-c3nc4ccn5c(=O)[nH]nc5c4cc3-c3ccccc3)cc2)CCC1 [MK-2206]; details: max 10 µM
Summary of the method: as §1

Etoposide = compound: COc1cc([C@@H]2c3cc4c(cc3[C@@H](O[C@@H]3O[C@@H]5CO[C@@H](C)O[C@H]5[C@H](O)[C@H]3O)[C@H]3COC(=O)[C@H]23)OCO4)cc(OC)c1O [Etoposide]; details: max 10 µM
Summary of the method: as §1

[1] = compound: O=C(Nc1ccc2[nH]nc(-c3ccncc3)c2c1)[C@@H]1CCN(CC(=O)N2CCN(c3ccc(-c4ncccn4)cc3)CC2)C1; details: max 5 µM
Summary of the method: as §1

5-Fluorouracil = compound: O=c1[nH]cc(F)c(=O)[nH]1 [5-Fluorouracil]; details: max 20 µM
Summary of the method: as §1

SRA737 = compound: N#Cc1cnc(Nc2cc(NC[C@H]3CNCCO3)c(C(F)(F)F)cn2)cn1 [SRA737]; details: max 10 µM
Summary of the method: as §1

Gemcitabine = compound: Nc1ccn([C@@H]2O[C@H](CO)[C@@H](O)C2(F)F)c(=O)n1 [Gemcitabine]; details: max 0.3 µM
Summary of the method: as §1

| Cell Line | IC50, cell viability 72 h (AZD4320) [nM] | IC50, cell viability 72 h (Doxorubicin) [nM] | IC50, cell viability 72 h (Gefitinib) [nM] | IC50, cell viability 72 h (Venetoclax) [nM] | IC50, cell viability 72 h (Dasatinib) [nM] | IC50, cell viability 72 h (Palbociclib) [nM] | IC50, cell viability 72 h (Olaparib) [nM] | IC50, cell viability 72 h (Taselisib) [nM] | IC50, cell viability 72 h (AZD0156) [nM] | IC50, cell viability 72 h (AZD5991) [nM] | IC50, cell viability 72 h (Lapatinib) [nM] | IC50, cell viability 72 h (AZD6738) [nM] | IC50, cell viability 72 h (AZD5153) [nM] | IC50, cell viability 72 h (Trametinib) [nM] | IC50, cell viability 72 h (Crizotinib) [nM] | IC50, cell viability 72 h (Savolitinib) [nM] | IC50, cell viability 72 h (AZD7648) [nM] | IC50, cell viability 72 h (AZD8186; max 3 µM) [nM] | IC50, cell viability 72 h (Prexasertib) [nM] | IC50, cell viability 72 h (Alisertib) [nM] | IC50, cell viability 72 h (AZD1390) [nM] | IC50, cell viability 72 h (AZD1775) [nM] | IC50, cell viability 72 h (SN-38) [nM] | IC50, cell viability 72 h (AZD2811) [nM] | IC50, cell viability 72 h (Capivasertib) [nM] | IC50, cell viability 72 h (Selumetinib) [nM] | IC50, cell viability 72 h (SG3199) [nM] | IC50, cell viability 72 h (AZD5363) [nM] | IC50, cell viability 72 h (Paclitaxel) [nM] | IC50, cell viability 72 h (Carboplatin) [nM] | IC50, cell viability 72 h (MK-2206) [nM] | IC50, cell viability 72 h (Etoposide) [nM] | IC50, cell viability 72 h [1] [nM] | IC50, cell viability 72 h (AZD8186; max 10 µM) [nM] | IC50, cell viability 72 h (5-Fluorouracil) [nM] | IC50, cell viability 72 h (SRA737) [nM] | IC50, cell viability 72 h (Gemcitabine) [nM] |
| --- | --- | --- | --- | --- | --- | --- | --- | --- | --- | --- | --- | --- | --- | --- | --- | --- | --- | --- | --- | --- | --- | --- | --- | --- | --- | --- | --- | --- | --- | --- | --- | --- | --- | --- | --- | --- | --- |
| GB-1 (Glioblastoma) | > 1000 | > 1000 | > 10000 | > 1000 | > 2000 | > 10000 | > 10000 | 9750 | > 3000 | > 1000 | > 10000 | > 10000 | > 1000 | > 1000 | > 10000 | > 1000 | > 10000 | > 3000 | 951 | > 10000 | > 300 | > 3000 | 32.7 | > 1000 | > 10000 | > 10000 | > 1 |  |  |  |  |  |  |  |  |  |  |
| PANC-03-27 (Pancreatic Carcinoma) | > 1000 | > 1000 | > 10000 | > 1000 | 1760 | > 10000 | > 10000 | 4600 | > 3000 | > 1000 | > 10000 | 2570 | > 1000 | 271 | > 10000 | > 1000 | > 10000 |  | 7.87 | > 10000 | > 300 | 184 | 49.8 | > 1000 |  | > 10000 | > 1 | > 10000 | 214 | > 10000 | > 10000 | > 10000 | 3080 | > 10000 | > 20000 | 3400 | 183 |
| REH (B-Lymphoblastic Leukemia) | 56.4 | 94.9 | > 10000 | 211 | > 2000 | 6850 | > 10000 | 3310 | > 3000 | 723 | > 10000 | 5790 | 834 | > 1000 | 4210 | > 1000 | > 10000 |  | 24.8 | 1620 | > 300 | 727 | 4.21 | 218 |  | > 10000 | > 1 | > 10000 | 5.44 | > 10000 | 4580 | 834 | > 5000 | 9640 | > 20000 | > 10000 | 15.6 |
| COLO-680N (Esophageal Squamous Cell Carcinoma) | > 1000 | > 1000 | > 10000 | > 1000 | > 2000 | > 10000 | > 10000 | > 10000 | > 3000 | > 1000 | > 10000 | > 10000 | > 1000 | > 1000 | > 10000 | > 1000 | > 10000 |  | > 1000 | > 10000 | > 300 | > 3000 | > 300 | > 1000 |  | > 10000 | > 1 | > 10000 | 1300 | > 10000 | > 10000 | > 10000 | > 5000 | > 10000 | > 20000 | > 10000 | > 300 |

From the supplement of paper PMC11061612
